Reference: PubChem BioAssay AID248 (DTP/NCI, 2004)
“And” between values parts separate entries of the source, which are not always exact repeats. Identical values can stand only once. Toxic doses and inconclusive results are not listed. Cut-off read from the data, not from the text of the source: active = T/C of 150% or more; inactive = T/C below 125%.

System: L1210 leukemia ip in BDF1 mice, survival T/C
Experiment: NCI In Vivo Anticancer Drug Screen. Data for tumor model L1210 Leukemia (intraperitoneal) in B6D2F1 (BDF1) mice
Conditions: endpoint: mean survival time, higher = longer survival
Procedure, shortened: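 Transplantable tumor model; survival measured in treated vs vehicle control mice. Value = treated/control.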

[1] = dose: 100.0 mg/kg/injection, schedule: Q04DX003 (ip), vehicle: Klucel (hydroxypropylcellulose) (HPC)
[2] = dose: 200.0 mg/kg/injection, schedule: Q04DX003 (ip), vehicle: Klucel (hydroxypropylcellulose) (HPC)
[3] = dose: 400.0 mg/kg/injection, schedule: Q04DX003 (ip), vehicle: Klucel (hydroxypropylcellulose) (HPC)
[4] = dose: 25.0 mg/kg/injection, schedule: Q01DX009 (ip), vehicle: saline with Tween-80
[5] = dose: 50.0 mg/kg/injection, schedule: Q01DX009 (ip), vehicle: saline with Tween-80
[6] = dose: 100.0 mg/kg/injection, schedule: Q01DX009 (ip), vehicle: saline with Tween-80
[7] = dose: 200.0 mg/kg/injection, schedule: Q01DX009 (ip), vehicle: saline with Tween-80
[8] = dose: 100.0 mg/kg/injection, schedule: Q01DX009 (ip), vehicle: saline
[9] = dose: 100.0 mg/kg/injection, schedule: Q04DX002 (ip), vehicle: saline with Tween-80
[10] = dose: 200.0 mg/kg/injection, schedule: Q04DX002 (ip), vehicle: saline with Tween-80
[11] = dose: 75.0 mg/kg/injection, schedule: Q01DX001 (ip), vehicle: saline
[12] = dose: 100.0 mg/kg/injection, schedule: Q01DX009 (ip), vehicle: Klucel (hydroxypropylcellulose) (HPC)
[13] = dose: 200.0 mg/kg/injection, schedule: Q01DX009 (ip), vehicle: Klucel (hydroxypropylcellulose) (HPC)
[14] = dose: 400.0 mg/kg/injection, schedule: Q01DX009 (ip), vehicle: Klucel (hydroxypropylcellulose) (HPC)
[15] = dose: 100.0 mg/kg/injection, schedule: Q01DX001 (ip), vehicle: saline with Tween-80
[16] = dose: 100.0 mg/kg/injection, schedule: Q04DX003 (ip), vehicle: saline with Tween-80
[17] = dose: 200.0 mg/kg/injection, schedule: Q01DX001 (ip), vehicle: saline with Tween-80
[18] = dose: 200.0 mg/kg/injection, schedule: Q04DX003 (ip), vehicle: saline with Tween-80
[19] = dose: 400.0 mg/kg/injection, schedule: Q01DX001 (ip), vehicle: saline with Tween-80
[20] = dose: 400.0 mg/kg/injection, schedule: Q04DX003 (ip), vehicle: saline with Tween-80
[21] = dose: 100.0 mg/kg/injection, schedule: Q01DX001 (ip), vehicle: Klucel (hydroxypropylcellulose) (HPC)
[22] = dose: 50.0 mg/kg/injection, schedule: Q01DX001 (ip), vehicle: saline
[23] = dose: 100.0 mg/kg/injection, schedule: Q01DX001 (ip), vehicle: saline
[24] = dose: 200.0 mg/kg/injection, schedule: Q01DX001 (ip), vehicle: saline
[25] = dose: 400.0 mg/kg/injection, schedule: Q01DX001 (ip), vehicle: saline

Measured: T/C

C[N+]1=NN(c2nc[nH]c2C(N)=O)CC1
inactive: dose: 100.0 mg/kg/injection, schedule: Q04DX002 (ip), vehicle: saline 96 % of control | dose: 200.0 mg/kg/injection, schedule: Q04DX002 (ip), vehicle: saline 100 % of control | dose: 400.0 mg/kg/injection, schedule: Q04DX002 (ip), vehicle: saline 115 % of control

CN(CCO)C(=O)c1ccc([N+](=O)[O-])cc1
inactive: [1] 91 % of control | [2] 88 % of control | [3] 107 % of control

O=[N+]([O-])c1ccc2nc[nH]c2c1
inactive: [4] 89 % of control | [5] 96 % of control

CCCCOC(=O)C1=C(C(=O)OCCCC)CCCC1
inactive: [6] 98 % of control | [7] 104 % of control

CC(C)[As](=O)(O)O
inactive: dose: 25.0 mg/kg/injection, schedule: Q01DX009 (ip), vehicle: saline 97 % of control | dose: 50.0 mg/kg/injection, schedule: Q01DX009 (ip), vehicle: saline 90 % of control | [8] 104 % of control and 106 % of control

O=C(O)c1ccc2c(c1)C(=O)c1ccccc1C2=O
inactive: [9] 105 % of control | [10] 99 % of control

CCSC1=C(SCC)C(=O)C(SCC)=C(SCC)C1=O
inactive: dose: 3.1 mg/kg/injection, schedule: Q01DX009 (ip), vehicle: saline with Tween-80 110 % of control | dose: 6.25 mg/kg/injection, schedule: Q01DX009 (ip), vehicle: saline with Tween-80 105 % of control | dose: 12.5 mg/kg/injection, schedule: Q01DX009 (ip), vehicle: saline with Tween-80 105 % of control | [4] 91 % of control | [5] 103 % of control

CCc1ccc(/C=C/c2ccc(O)c3ccccc23)[n+](C)c1
inactive: [11] 97 % of control | dose: 150.0 mg/kg/injection, schedule: Q01DX001 (ip), vehicle: saline 105 % of control

Cc1cc(OC(=O)Nc2ccc(F)c([N+](=O)[O-])c2)cc(C)c1Cl
inactive: [12] 101 % of control | [13] 93 % of control | [14] 95 % of control

CCCN(CCC)C(=O)SCC
inactive: [15] 101 % of control | [16] 101 % of control and 105 % of control | [17] 97 % of control | [18] 100 % of control and 101 % of control | [19] 97 % of control | [20] 110 % of control and 117 % of control

CSc1ccc(NC(=O)Nc2cccc(Cl)c2C)cc1
inactive: dose: 50.0 mg/kg/injection, schedule: Q04DX003 (ip), vehicle: saline with Tween-80 94 % of control | [6] 96 % of control and 101 % of control | [9] 93 % of control and 104 % of control | [16] 92 % of control | [7] 100 % of control and 104 % of control | [10] 93 % of control and 97 % of control | [18] 87 % of control | dose: 400.0 mg/kg/injection, schedule: Q01DX009 (ip), vehicle: saline with Tween-80 104 % of control and 106 % of control | dose: 400.0 mg/kg/injection, schedule: Q04DX002 (ip), vehicle: saline with Tween-80 107 % of control and 88 % of control | [20] 88 % of control

CCCCNC(=O)N(C)Cc1ccccc1
inactive: dose: 100.0 mg/kg/injection, schedule: Q04DX002 (ip), vehicle: Klucel (hydroxypropylcellulose) (HPC) 105 % of control | dose: 200.0 mg/kg/injection, schedule: Q04DX002 (ip), vehicle: Klucel (hydroxypropylcellulose) (HPC) 97 % of control | dose: 400.0 mg/kg/injection, schedule: Q04DX002 (ip), vehicle: Klucel (hydroxypropylcellulose) (HPC) 112 % of control

CC(=O)CC(=O)Nc1nc(C)cs1
inactive: dose: 75.0 mg/kg/injection, schedule: Q01DX001 (ip), vehicle: Klucel (hydroxypropylcellulose) (HPC) 100 % of control | dose: 150.0 mg/kg/injection, schedule: Q01DX001 (ip), vehicle: Klucel (hydroxypropylcellulose) (HPC) 100 % of control | dose: 300.0 mg/kg/injection, schedule: Q01DX001 (ip), vehicle: Klucel (hydroxypropylcellulose) (HPC) 95 % of control

CCC/C(=C\C(=O)O)CC
inactive: [12] 94 % of control | [1] 93 % of control | [13] 96 % of control | [2] 90 % of control | [14] 96 % of control | [3] 98 % of control

Nc1ccc(Cc2[nH]c(=O)[nH]c(=O)c2Br)cc1[N+](=O)[O-]
inactive: dose: 25.0 mg/kg/injection, schedule: Q01DX001 (ip), vehicle: Klucel (hydroxypropylcellulose) (HPC) 103 % of control | dose: 50.0 mg/kg/injection, schedule: Q01DX001 (ip), vehicle: Klucel (hydroxypropylcellulose) (HPC) 95 % of control | [21] 93 % of control

O=S(=O)(O)Nc1ccc(S(=O)(=O)O)c2ccccc12
inactive: [22] 102 % of control | [23] 93 % of control | [24] 96 % of control | [25] 98 % of control

Cc1ncc(CO)c(Nc2ccccc2Cl)n1
inactive: dose: 12.5 mg/kg/injection, schedule: Q04DX003 (ip), vehicle: Klucel (hydroxypropylcellulose) (HPC) 88 % of control | dose: 25.0 mg/kg/injection, schedule: Q04DX003 (ip), vehicle: Klucel (hydroxypropylcellulose) (HPC) 102 % of control | dose: 50.0 mg/kg/injection, schedule: Q04DX003 (ip), vehicle: Klucel (hydroxypropylcellulose) (HPC) 98 % of control

Cn1ccc[n+]1C
inactive: [23] 93 % of control | [24] 101 % of control | [25] 92 % of control

O=c1cc[nH]c2ccc(Cl)cc12
inactive: [22] 117 % of control | [23] 102 % of control

CCc1n[nH]c(C(N)=O)c1O
inactive: dose: 100.0 mg/kg/injection, schedule: Q01DX001 (ip), vehicle: gum acacia 103 % of control | [8] 108 % of control | dose: 200.0 mg/kg/injection, schedule: Q01DX001 (ip), vehicle: gum acacia 101 % of control | dose: 200.0 mg/kg/injection, schedule: Q01DX009 (ip), vehicle: saline 104 % of control | dose: 400.0 mg/kg/injection, schedule: Q01DX001 (ip), vehicle: gum acacia 106 % of control | dose: 400.0 mg/kg/injection, schedule: Q01DX009 (ip), vehicle: saline 100 % of control

O=C(c1ccccc1)c1ccc[n+](Cc2c(Cl)cccc2Cl)c1
inactive: [11] 101 % of control

O=C(/C(=C1\SS/C(=C(/C(=O)c2ccccc2)c2ccccc2)S1)c1ccccc1)c1ccccc1
inactive: [21] 114 % of control | [1] 100 % of control | dose: 200.0 mg/kg/injection, schedule: Q01DX001 (ip), vehicle: Klucel (hydroxypropylcellulose) (HPC) 108 % of control | [2] 97 % of control | dose: 400.0 mg/kg/injection, schedule: Q01DX001 (ip), vehicle: Klucel (hydroxypropylcellulose) (HPC) 104 % of control | [3] 94 % of control

O=[N+]([O-])c1ccc(CCBr)cc1
inactive: dose: 50.0 mg/kg/injection, schedule: Q01DX001 (ip), vehicle: carboxymethylcellulose (CMC) 96 % of control | dose: 100.0 mg/kg/injection, schedule: Q01DX001 (ip), vehicle: carboxymethylcellulose (CMC) 94 % of control | dose: 200.0 mg/kg/injection, schedule: Q01DX001 (ip), vehicle: carboxymethylcellulose (CMC) 100 % of control | dose: 400.0 mg/kg/injection, schedule: Q01DX001 (ip), vehicle: carboxymethylcellulose (CMC) 105 % of control

CC(=O)c1c(C)[nH]c(C(=O)O)c1C
inactive: [15] 103 % of control | [17] 100 % of control | [19] 90 % of control
